According to patent US9205139B2, “Immunomodulatory methods and systems for treatment and/or prevention of aneurysms” (priority 2010, dated 2015):
Peptide text beside a SMILES is read from it.

Experiments:
[1] = Circulating cholesterol and body weight of immunized mice; type: in vivo; conditions: n = 10; mean±Std
From the text: Immunization protocols Male apoE (−/−) mice (Jackson Laboratories) were housed in an animal facility accredited by the American Association of Accreditation of Laboratory Animal Care and kept on a 12-hour day/night cycle with unrestricted access to water and food. The Institutional Animal Care and Use Committee of Cedars-Sinai Medical Center approved the experimental protocols. […] Mice, maintained on normal chow diet, received subcutaneous primary immunization in the dorsal area between scapulas at 6-7 weeks of age, followed by a booster at 9 and 12 weeks of age. One week after last booster, diet was switched to high cholesterol chow (TD 88137, Harlan-Teklad) and continued until euthanasia at the age of 25 weeks. Separate groups of mice receiving PBS or cBSA/alum at the same immunization time-points served as control. Some mice were sacrificed at 8 or 13 weeks of age to assess immune response against p210.
The vaccine preparation consisted of the p210 peptide (Euro-Diagnostica AB, Sweden) conjugated to cationic bovine serum albumin (cBSA) as carrier using a method described previously^3;4. Alum was used as adjuvant and mixed with peptide/cBSA conjugated with 1:1 ratio in volume. Peptide conjugation was performed on the day of immunization and freshly mixed with alum just prior to each immunization. […]

[2] = system: atherosclerosis; conditions: WO 02/080954, Table B; cited from earlier work

CC(C)C[C@H](NC(=O)[C@H](CC(=O)O)NC(=O)[C@H](Cc1ccccc1)NC(=O)[C@H](CO)NC(=O)[C@H](CCC(N)=O)NC(=O)[C@H](CCCCN)NC(=O)[C@@H](NC(=O)[C@@H](NC(=O)[C@@H](N)CCCCN)[C@@H](C)O)[C@@H](C)O)C(=O)N[C@@H](CO)C(=O)N[C@H](C(=O)N[C@@H](CCCCN)C(=O)N[C@@H](C)C(=O)N[C@@H](CCC(N)=O)C(=O)N[C@@H](Cc1ccc(O)cc1)C(=O)N[C@@H](CCCCN)C(=O)N[C@@H](CCCCN)C(=O)N[C@@H](CC(N)=O)C(=O)N[C@@H](CCCCN)C(=O)N[C@@H](Cc1c[nH]cn1)C(=O)O)C(C)C [p210, KTTKQ SFDLS VKAQY KKNKH] (H-KTTKQSFDLSVKAQYKKNKH-OH)
Body weight [1]: without affecting

EEEML ENVSL VCPKD ATRFK [p1]
percentage reduction of atherosclerosis [2]: 31%

HTFLI YITEL LKKLQ STTVM (HTFLIYITELLKKLQSTTVM) [p301]
percentage reduction of atherosclerosis [2]: 55.2%

IEIGL EGKGF EPTLE ALFGK (IEIGLEGKGFEPTLEALFGK) [p45]
percentage reduction of atherosclerosis [2]: 47.4%
